Measurements: publication PMC5762315, “Inhibition of polo-like kinase 4 (PLK4): a new therapeutic option for rhabdoid tumors and pediatric medulloblastoma” (Oncotarget, 2017)
Where “and” joins values, the source holds several entries; their conditions need not be identical. Identical values can stand only once.

How the values were obtained:
Test in all cases: LanthaScreen Eu Kinase Binding Assay, panel of 486 biochemical kinase assays
[1] = target: various kinases (Homo sapiens, UniProt Q9UM73, L1196M); settings: ALK L1196M
[2] = target: various kinases (Homo sapiens, UniProt P49336); settings: CDK8/cyclin C
[3] = target: various kinases (Homo sapiens, UniProt Q96RR4); settings: CAMKK2 (CaMKK beta)
Chain of various kinases (Homo sapiens, UniProt Q96RR4) (Q96RR4 whole entry): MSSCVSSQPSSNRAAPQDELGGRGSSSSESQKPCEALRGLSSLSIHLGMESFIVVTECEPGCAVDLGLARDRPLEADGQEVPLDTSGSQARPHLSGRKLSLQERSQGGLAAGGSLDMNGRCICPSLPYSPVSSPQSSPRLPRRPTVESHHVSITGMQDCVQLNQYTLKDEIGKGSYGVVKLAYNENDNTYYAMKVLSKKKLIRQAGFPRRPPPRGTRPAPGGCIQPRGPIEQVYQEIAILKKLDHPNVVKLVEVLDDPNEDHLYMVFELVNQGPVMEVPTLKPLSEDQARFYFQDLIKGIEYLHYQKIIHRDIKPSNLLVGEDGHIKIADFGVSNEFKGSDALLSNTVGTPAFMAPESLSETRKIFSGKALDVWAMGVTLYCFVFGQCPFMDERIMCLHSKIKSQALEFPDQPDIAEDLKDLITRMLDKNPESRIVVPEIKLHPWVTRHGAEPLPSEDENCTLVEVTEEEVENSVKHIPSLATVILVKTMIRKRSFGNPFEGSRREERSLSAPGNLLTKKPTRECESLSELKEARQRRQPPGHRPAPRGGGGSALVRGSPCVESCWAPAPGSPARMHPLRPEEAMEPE

[4] = target: various kinases (Homo sapiens, UniProt Q00536); settings: CDK16 (PCTK1)/cyclin Y
[5] = target: various kinases (Homo sapiens, UniProt P53779); settings: MAPK10 (JNK3)
[6] = target: various kinases (Homo sapiens, UniProt Q15746); settings: MYLK (MLCK)
[7] = target: various kinases (Homo sapiens, UniProt O00311); settings: CDC7/DBF4
[8] = target: various kinases (Homo sapiens, UniProt P10721, D816V); settings: KIT D816V
[9] = target: various kinases (Homo sapiens, UniProt Q15569); settings: kinase TESK1; LanthaScreen Binding
Chain of various kinases (Homo sapiens, UniProt Q15569) (Q15569 whole entry): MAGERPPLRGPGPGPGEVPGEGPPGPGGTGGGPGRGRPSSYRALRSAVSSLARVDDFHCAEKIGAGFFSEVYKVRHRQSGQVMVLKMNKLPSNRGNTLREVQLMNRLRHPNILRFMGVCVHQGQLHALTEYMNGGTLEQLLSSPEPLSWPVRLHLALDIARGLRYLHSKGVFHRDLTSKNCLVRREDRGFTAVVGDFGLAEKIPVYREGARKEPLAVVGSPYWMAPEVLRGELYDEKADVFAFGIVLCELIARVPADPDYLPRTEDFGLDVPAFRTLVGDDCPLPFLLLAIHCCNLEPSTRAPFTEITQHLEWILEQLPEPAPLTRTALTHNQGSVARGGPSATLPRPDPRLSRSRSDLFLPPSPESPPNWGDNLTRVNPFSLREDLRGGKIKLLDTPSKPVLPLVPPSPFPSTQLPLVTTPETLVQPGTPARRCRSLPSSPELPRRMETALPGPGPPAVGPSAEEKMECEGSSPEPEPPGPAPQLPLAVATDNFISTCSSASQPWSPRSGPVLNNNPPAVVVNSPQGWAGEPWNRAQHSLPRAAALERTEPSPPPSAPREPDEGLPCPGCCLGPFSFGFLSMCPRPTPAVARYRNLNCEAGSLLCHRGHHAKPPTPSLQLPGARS

[10] = target: various kinases (Homo sapiens, UniProt Q04771, R206H); settings: ACVR1 (ALK2) R206H
[11] = target: various kinases (Homo sapiens, UniProt P04049, Y340D/Y341D); settings: kinase RAF1 (cRAF) Y340D Y341D; LanthaScreen Binding
Chain of various kinases (Homo sapiens, UniProt P04049, Y340D/Y341D) (P04049 whole entry Y340D/Y341D): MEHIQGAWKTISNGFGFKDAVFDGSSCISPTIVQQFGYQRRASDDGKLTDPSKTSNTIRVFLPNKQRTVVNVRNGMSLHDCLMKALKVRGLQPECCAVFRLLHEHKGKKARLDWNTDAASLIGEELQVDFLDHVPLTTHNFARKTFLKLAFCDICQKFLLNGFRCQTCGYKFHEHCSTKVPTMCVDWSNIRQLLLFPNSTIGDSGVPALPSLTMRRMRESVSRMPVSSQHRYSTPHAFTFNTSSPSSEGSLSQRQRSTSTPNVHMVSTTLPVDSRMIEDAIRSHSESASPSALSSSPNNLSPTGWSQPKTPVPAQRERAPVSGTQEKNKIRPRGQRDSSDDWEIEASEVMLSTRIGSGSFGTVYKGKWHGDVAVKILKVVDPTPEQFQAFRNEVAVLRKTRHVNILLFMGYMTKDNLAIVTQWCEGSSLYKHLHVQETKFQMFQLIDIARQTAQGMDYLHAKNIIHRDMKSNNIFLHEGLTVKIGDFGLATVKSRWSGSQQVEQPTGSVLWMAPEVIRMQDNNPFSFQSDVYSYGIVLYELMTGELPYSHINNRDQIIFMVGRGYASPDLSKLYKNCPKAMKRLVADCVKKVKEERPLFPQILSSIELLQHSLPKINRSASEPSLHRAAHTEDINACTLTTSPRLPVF

[12] = target: various kinases (Homo sapiens, UniProt Q9H093); settings: NUAK2
[13] = target: various kinases (Homo sapiens, UniProt P10721, A829P); settings: KIT A829P
[14] = target: various kinases (Homo sapiens, UniProt Q9NRM7); settings: LATS2
[15] = target: various kinases (Homo sapiens, UniProt O14936); settings: CASK
[16] = target: various kinases (Homo sapiens, UniProt Q9H4A3); settings: kinase WNK1; LanthaScreen Binding
Chain of various kinases (Homo sapiens, UniProt Q9H4A3) (Q9H4A3 whole entry): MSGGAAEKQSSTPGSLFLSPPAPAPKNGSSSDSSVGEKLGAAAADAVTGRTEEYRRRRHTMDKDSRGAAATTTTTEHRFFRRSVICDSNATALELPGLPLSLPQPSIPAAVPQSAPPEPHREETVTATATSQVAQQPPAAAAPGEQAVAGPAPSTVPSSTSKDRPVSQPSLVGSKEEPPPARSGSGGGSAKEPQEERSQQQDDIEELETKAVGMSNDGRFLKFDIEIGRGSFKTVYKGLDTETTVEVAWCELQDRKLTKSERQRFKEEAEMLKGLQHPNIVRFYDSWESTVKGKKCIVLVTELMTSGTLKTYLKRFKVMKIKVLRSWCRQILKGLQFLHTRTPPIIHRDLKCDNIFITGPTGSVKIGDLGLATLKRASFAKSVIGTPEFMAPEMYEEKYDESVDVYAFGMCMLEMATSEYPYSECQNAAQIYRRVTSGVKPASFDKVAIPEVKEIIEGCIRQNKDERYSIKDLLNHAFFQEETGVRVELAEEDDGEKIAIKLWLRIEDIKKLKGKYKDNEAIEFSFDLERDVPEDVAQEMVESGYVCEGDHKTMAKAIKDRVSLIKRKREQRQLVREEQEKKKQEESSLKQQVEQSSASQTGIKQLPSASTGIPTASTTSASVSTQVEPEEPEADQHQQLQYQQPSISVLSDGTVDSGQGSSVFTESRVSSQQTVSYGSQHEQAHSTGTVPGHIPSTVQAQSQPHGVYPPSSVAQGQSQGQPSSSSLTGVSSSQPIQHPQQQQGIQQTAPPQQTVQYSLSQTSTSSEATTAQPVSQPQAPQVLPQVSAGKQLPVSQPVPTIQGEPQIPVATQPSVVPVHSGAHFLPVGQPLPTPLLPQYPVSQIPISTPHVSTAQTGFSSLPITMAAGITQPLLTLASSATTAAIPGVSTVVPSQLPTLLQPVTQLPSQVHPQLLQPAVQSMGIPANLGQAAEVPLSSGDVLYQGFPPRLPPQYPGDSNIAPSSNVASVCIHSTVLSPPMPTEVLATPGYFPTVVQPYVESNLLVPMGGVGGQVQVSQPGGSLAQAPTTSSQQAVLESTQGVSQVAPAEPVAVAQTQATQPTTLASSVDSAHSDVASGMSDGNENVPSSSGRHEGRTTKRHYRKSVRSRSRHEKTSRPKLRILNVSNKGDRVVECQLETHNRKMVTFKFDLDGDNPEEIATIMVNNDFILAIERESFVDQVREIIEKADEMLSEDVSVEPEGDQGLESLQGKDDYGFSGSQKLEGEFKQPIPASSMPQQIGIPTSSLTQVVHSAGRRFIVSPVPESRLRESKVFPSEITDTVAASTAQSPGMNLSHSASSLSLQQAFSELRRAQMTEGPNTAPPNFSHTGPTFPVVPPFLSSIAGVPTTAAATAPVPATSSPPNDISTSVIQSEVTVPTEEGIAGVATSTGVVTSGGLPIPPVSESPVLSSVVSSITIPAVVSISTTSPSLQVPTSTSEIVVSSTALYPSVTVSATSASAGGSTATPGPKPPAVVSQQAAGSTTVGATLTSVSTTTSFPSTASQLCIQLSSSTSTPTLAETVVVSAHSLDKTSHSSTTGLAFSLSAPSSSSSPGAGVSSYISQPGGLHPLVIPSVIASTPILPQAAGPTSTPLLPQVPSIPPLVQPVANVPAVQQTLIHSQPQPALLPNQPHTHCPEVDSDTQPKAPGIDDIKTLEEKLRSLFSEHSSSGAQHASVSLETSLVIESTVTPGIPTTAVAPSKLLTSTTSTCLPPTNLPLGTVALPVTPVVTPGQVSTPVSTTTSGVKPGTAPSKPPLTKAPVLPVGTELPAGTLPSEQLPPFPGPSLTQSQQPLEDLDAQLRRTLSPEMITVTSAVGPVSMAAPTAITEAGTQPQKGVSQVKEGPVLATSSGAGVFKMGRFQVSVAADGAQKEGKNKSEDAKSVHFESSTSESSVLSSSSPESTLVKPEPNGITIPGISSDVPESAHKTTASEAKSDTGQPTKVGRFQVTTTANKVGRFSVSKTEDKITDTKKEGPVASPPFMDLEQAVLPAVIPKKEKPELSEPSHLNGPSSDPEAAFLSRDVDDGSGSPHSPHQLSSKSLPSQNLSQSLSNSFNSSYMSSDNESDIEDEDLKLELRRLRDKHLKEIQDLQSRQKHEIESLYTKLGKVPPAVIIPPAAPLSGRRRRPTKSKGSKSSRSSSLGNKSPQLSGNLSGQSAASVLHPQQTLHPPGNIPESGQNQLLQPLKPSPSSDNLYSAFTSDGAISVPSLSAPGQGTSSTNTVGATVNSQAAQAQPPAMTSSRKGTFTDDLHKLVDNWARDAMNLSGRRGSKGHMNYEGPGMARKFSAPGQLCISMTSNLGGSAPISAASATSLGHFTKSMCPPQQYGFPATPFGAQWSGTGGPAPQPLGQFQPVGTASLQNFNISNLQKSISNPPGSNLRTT

[17] = target: various kinases (Homo sapiens, UniProt Q9UF33); settings: EPHA6
[18] = target: T1, various kinases (Homo sapiens, UniProt Q6PHR2); settings: kinase ULK3; LanthaScreen Binding
T1 sequence (Q6PHR2 1-472): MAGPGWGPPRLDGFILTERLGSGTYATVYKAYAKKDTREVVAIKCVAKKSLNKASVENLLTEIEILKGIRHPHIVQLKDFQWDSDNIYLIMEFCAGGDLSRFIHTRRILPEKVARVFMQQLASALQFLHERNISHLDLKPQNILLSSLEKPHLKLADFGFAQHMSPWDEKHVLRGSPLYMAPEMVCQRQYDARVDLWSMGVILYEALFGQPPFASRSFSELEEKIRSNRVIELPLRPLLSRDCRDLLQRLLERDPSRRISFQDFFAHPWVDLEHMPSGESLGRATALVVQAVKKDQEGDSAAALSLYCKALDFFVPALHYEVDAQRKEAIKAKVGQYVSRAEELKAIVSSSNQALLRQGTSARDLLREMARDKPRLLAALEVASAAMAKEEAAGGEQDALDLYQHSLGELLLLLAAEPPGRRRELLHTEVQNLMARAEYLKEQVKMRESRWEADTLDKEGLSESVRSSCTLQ

[19] = target: various kinases (Homo sapiens, UniProt Q13705); settings: ACVR2B
[20] = target: various kinases (Homo sapiens, UniProt Q9HBH9); settings: MKNK2 (MNK2)
[21] = target: various kinases (Homo sapiens, UniProt P37173); settings: kinase TGFBR2; LanthaScreen Binding
Chain of various kinases (Homo sapiens, UniProt P37173) (P37173 23-567): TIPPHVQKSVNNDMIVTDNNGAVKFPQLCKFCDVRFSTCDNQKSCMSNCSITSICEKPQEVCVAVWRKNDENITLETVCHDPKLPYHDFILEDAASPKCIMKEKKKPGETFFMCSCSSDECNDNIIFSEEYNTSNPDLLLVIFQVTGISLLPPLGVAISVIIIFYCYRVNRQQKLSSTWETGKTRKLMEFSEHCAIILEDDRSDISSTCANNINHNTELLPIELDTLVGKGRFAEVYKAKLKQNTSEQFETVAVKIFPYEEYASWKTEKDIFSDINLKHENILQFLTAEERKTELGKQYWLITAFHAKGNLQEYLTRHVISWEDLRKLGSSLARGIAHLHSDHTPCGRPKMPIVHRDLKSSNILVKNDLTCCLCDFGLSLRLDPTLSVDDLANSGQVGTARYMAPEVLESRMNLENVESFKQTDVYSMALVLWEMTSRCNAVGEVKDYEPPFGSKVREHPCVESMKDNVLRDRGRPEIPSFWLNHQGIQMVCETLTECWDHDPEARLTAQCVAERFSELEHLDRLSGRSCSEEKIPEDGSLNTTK

[22] = target: various kinases (Homo sapiens, UniProt P10721, Y823D); settings: KIT Y823D
[23] = target: various kinases (Homo sapiens, UniProt Q32MK0); settings: MLCK (MLCK2)
[24] = target: T2, various kinases (Homo sapiens, UniProt Q9UEE5); settings: kinase STK17A (DRAK1); LanthaScreen Binding
T2 sequence (Q9UEE5 1-414): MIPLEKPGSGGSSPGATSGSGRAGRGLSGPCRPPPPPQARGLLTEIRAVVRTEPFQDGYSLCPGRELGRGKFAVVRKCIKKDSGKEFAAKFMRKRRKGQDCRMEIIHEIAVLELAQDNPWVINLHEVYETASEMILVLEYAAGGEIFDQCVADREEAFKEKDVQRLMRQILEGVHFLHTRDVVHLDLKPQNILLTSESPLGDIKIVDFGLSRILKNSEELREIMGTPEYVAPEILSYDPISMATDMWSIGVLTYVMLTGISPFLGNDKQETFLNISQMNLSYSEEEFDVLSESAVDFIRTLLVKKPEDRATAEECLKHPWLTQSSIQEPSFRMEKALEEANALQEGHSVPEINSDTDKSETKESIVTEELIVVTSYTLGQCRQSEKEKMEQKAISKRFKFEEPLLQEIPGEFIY

[25] = target: various kinases (Homo sapiens, UniProt P45985); settings: MAP2K4 (MEK4)
[26] = target: various kinases (Homo sapiens, UniProt Q86YV6); settings: MYLK4

COc1ccc2c(c1)[C@]1(C[C@H]1c1ccc3c(/C=C/c4ccc(CN5C[C@@H](C)O[C@@H](C)C5)cc4)n[nH]c3c1)C(=O)N2 [CFI-400945]
% Inhibition [1]: 14% and 25%
% Inhibition [2]: 17% and 9%
% Inhibition [3]: 33% and 23%
% Inhibition [4]: 10% and 9%
% Inhibition [5]: 3% and -3%
% Inhibition [6]: 0% and -2%
% Inhibition [7]: 13% and 16%
% Inhibition [8]: -1% and 0%
% Inhibition Average [9]: 12%
% Inhibition Duplicate #1 [9]: 13%
% Inhibition Duplicate #2 [9]: 11%
% Inhibition [10]: 9% and 13%
% Inhibition Average [11]: -3%
% Inhibition Duplicate #1 [11]: -6%
% Inhibition Duplicate #2 [11]: -1%
% Inhibition [12]: 44% and 36%
% Inhibition [13]: 0% and 7%
% Inhibition [14]: 16% and 14%
% Inhibition [15]: 57% and 65%
% Inhibition Average [16]: 11%
% Inhibition Duplicate #1 [16]: 14%
% Inhibition Duplicate #2 [16]: 8%
% Inhibition [17]: 18% and 24%
% Inhibition Average [18]: 0%
% Inhibition Duplicate #1 [18]: -4%
% Inhibition Duplicate #2 [18]: 3%
% Inhibition [19]: 4% and 0%
% Inhibition [20]: 26% and 29%
% Inhibition Average [21]: 1%
% Inhibition Duplicate #1 [21]: -2%
% Inhibition Duplicate #2 [21]: 5%
% Inhibition [22]: 4% and -6%
% Inhibition [23]: 1% and 6%
% Inhibition Average [24]: 19%
% Inhibition Duplicate #1 [24]: 24%
% Inhibition Duplicate #2 [24]: 13%
% Inhibition [25]: 7% and 3%
% Inhibition [26]: 7% and 13%
